Assay results as given in patent US9808527B2, “Methods and compositions for treating HIV infections” (priority 2006, dated 2017).
Like-named read-outs stand apart in the source and are kept apart here.

What was measured:
Format in all cases: cell-based
[1] = tested on: HIV-1ERS104pre (wild-type: X4); experiment: p24 Gag production inhibition, PHA-PBMs, wild-type clinical isolate
Protocol: (§1) Drug susceptibility assay. The susceptibility of HIV-1LAI, HIV-2EHO, HIV-2ROD, to various drugs and the cytotoxicity of those drugs was determined by using the MTT assay. Briefly, MT-2 cells (2×10^4/mL) were exposed to 100 TCID50s (50% tissue culture infectious doses) of HIV-1LAI, HIV-2EHO, or HIV-2ROD in the presence or absence of various concentrations of drugs in 96-well microculture plates and were incubated at 37° C. for 7 days. After 100 μL of the medium was removed from each well, 3-(4,5-dimethylthiazol-2-yl)-2,5-diphenyltetrazolium bromide (MTT) solution (10 μL, 7.5 mg/mL in phosphate-buffered saline) was added to each well in the plate, followed by incubation at 37° C. for 4 hours. […] All assays were performed in duplicate or triplicate. To determine the sensitivity of HIV-1Ba-L, HIV-1ERS104 pre, and clinical multi-drug-resistant HIV-1 isolates and different subtypes of HIV-1 isolates to drugs, phytohemagglutinin-activated peripheral blood mononuclear cells (PHA-PBMs; 10^6/mL) were exposed to 50 TCID50 (50% tissue infectious dose) of each HIV-1 isolate and cultured in the presence or absence of various concentrations of drugs in 10-fold serial dilutions in 96-well microtiter culture plates. To determine the drug susceptibility of certain laboratory HIV-1 strains (HIV-1NL4-3), MT-4 cells were used as target cells. MT-4 cells (10^5/mL) were exposed to 100 TCID50 of wild type HIV-1NL4-3 and PI-resistant HIV-1NL4-3 in the presence or absence of various concentrations of drugs and were incubated at 37° C. On day 7 of culture, the supernatant was harvested and the amount of p24 Gag protein was determined by using a fully automated chemiluminescent enzyme immunoassay system (Lumipulse F; Fujirebio Inc., Tokyo, Japan) (22). […] All assays were performed in duplicate or triplicate.
(§2) The amino acid substitutions identified in the protease-encoding region of HIV-1ERS104pre, HIV-1TM, HIV-1MM, HIV-1JSL, HIV-1B, HIV-1C, HIV-1G compared to the consensus type B sequence cited from the Los Alamos database include L63P; L10I, K14R, R41K, M46L, I54V, L63P, A71V, V82A, L90M; I93L; L10I, K43T, M46L, I54V, L63P, A71V, V82A, L90M, Q92K; L10I, L24I, I33F, E35D, M36I, N37S, M46L, I54V, R57K, I62V, L63P, A71V, G73S, V82A; L10I, K14R, L33I, M36I, M46I, F53I, K55R, I62V, L63P, A71V, G73S, V82A, L90M, I93L; L10I, I15V, K20R, L24I, M36I, M46L, I54V, I62V, L63P, K70Q, V82A, L89M; and L10I, V11I, T12E, I15V, L19I, R41K, M46L, L63P, A71T, V82A, L90M, respectively. HIV-1ERS104pre served as a source of wild-type HIV-1. The IC50 values were determined by using PHA-PBMs as target cells and the inhibition of p24 Gag protein production by each drug was used as an endpoint. The numbers in parentheses represent the fold changes of IC50 values for each isolate compared to the IC50 values for wild-type HIV-1ERS104pre. All assays were conducted in duplicate or triplicate, and the data shown represent mean values (±1 standard deviations) derived from the results of three independent experiments.

HIV-1GRL98065r-40P = experiment: microbe, parasite or virus in culture; details: for IC50: Human immunodeficiency virus 1, MT4, read-out: IC50 against HIV-1GRL98065r-40P; for fold change of IC50, HIV-1GRL98065r-40P: compared to HIV-1NL4-3
Protocol: Drug susceptibility assay. The susceptibility of HIV-1LAI, HIV-2EHO, HIV-2ROD, to various drugs and the cytotoxicity of those drugs was determined by using the MTT assay. Briefly, MT-2 cells (2×10^4/mL) were exposed to 100 TCID50s (50% tissue culture infectious doses) of HIV-1LAI, HIV-2EHO, or HIV-2ROD in the presence or absence of various concentrations of drugs in 96-well microculture plates and were incubated at 37° C. for 7 days. After 100 μL of the medium was removed from each well, 3-(4,5-dimethylthiazol-2-yl)-2,5-diphenyltetrazolium bromide (MTT) solution (10 μL, 7.5 mg/mL in phosphate-buffered saline) was added to each well in the plate, followed by incubation at 37° C. for 4 hours. […] All assays were performed in duplicate or triplicate. To determine the sensitivity of HIV-1Ba-L, HIV-1ERS104 pre, and clinical multi-drug-resistant HIV-1 isolates and different subtypes of HIV-1 isolates to drugs, phytohemagglutinin-activated peripheral blood mononuclear cells (PHA-PBMs; 10^6/mL) were exposed to 50 TCID50 (50% tissue infectious dose) of each HIV-1 isolate and cultured in the presence or absence of various concentrations of drugs in 10-fold serial dilutions in 96-well microtiter culture plates. To determine the drug susceptibility of certain laboratory HIV-1 strains (HIV-1NL4-3), MT-4 cells were used as target cells. MT-4 cells (10^5/mL) were exposed to 100 TCID50 of wild type HIV-1NL4-3 and PI-resistant HIV-1NL4-3 in the presence or absence of various concentrations of drugs and were incubated at 37° C. On day 7 of culture, the supernatant was harvested and the amount of p24 Gag protein was determined by using a fully automated chemiluminescent enzyme immunoassay system (Lumipulse F; Fujirebio Inc., Tokyo, Japan) (22). […] All assays were performed in duplicate or triplicate. […]

HIV-1MDR/B (X4) = experiment: microbe, parasite or virus in culture; details: for IC50: Human immunodeficiency virus 1, read-out: IC50 against HIV-1MDR/B (X4); for fold change of IC50, HIV-1MDR/B: compared to wild-type HIV-1ERS104pre
Protocol: as §1
(§3) HIV-1ERS104pre served as a source of wild-type HIV-1. The IC50 values were determined by using PHA-PBMs as target cells and the inhibition of p24 Gag protein production by each drug was used as an endpoint.

HIV-1MDR/G (X4) = experiment: microbe, parasite or virus in culture; details: for IC50: Human immunodeficiency virus 1, read-out: IC50 against HIV-1MDR/G (X4); for fold change of IC50, HIV-1MDR/G: compared to wild-type HIV-1ERS104pre
Protocol: as §1, §3

HIV-1MDR/TM (X4) = experiment: microbe, parasite or virus in culture; details: for IC50: Human immunodeficiency virus 1, read-out: IC50 against HIV-1MDR/TM (X4); for fold change of IC50, HIV-1MDR/TM: compared to wild-type HIV-1ERS104pre
Protocol: as §1, §3

[2] = tested on: multi-drug-resistant clinical HIV-1 variants; experiment: p24 assay, PHA-PBMs, panel of multi-drug-resistant clinical HIV-1 isolates; details: Human immunodeficiency virus 1, read-out: IC50 against multi-drug-resistant clinical HIV-1 strains, PHA-PBMs, p24 production
Protocol: as §1, §2

[3] = Human immunodeficiency virus 1, PHA-PBMs, p24 Gag production, read-out: IC50 against HIV-1ERS104pre (wild-type: X4)
[4] = Human immunodeficiency virus 1, read-out: IC50 against HIV-1ERS104pre (wild-type: X4)

Compound	IC50 [1, 3] [µM]	IC50 (HIV-1GRL98065r-40P) [µM]	IC50 (HIV-1MDR/B (X4)) [µM]	IC50 (HIV-1MDR/G (X4)) [µM]	IC50 (HIV-1MDR/TM (X4)) [µM]	IC50 [2] [µM]	IC50 [1, 4] [µM]	fold change of IC50, HIV-1GRL98065r-40P (HIV-1GRL98065r-40P)	fold change of IC50, HIV-1MDR/B (HIV-1MDR/B (X4))	fold change of IC50, HIV-1MDR/G (HIV-1MDR/G (X4))	fold change of IC50, HIV-1MDR/TM (HIV-1MDR/TM (X4))
CC(C)CN(C[C@@H](O)[C@H](Cc1ccccc1)NC(=O)O[C@H]1CCOC1)S(=O)(=O)c1ccc(N)cc1 [APV, Amprenavir]	0.029 ± 0.005	> 1	0.36 ± 0.09	0.32 ± 0.02	0.3 ± 0.04	–	–	–	–	–	–
CC(C)(C)NC(=O)[C@@H]1CN(Cc2cccnc2)CCN1C[C@@H](O)C[C@@H](Cc1ccccc1)C(=O)N[C@H]1c2ccccc2C[C@H]1O [IDV, indinavir]	0.024 ± 0.008	0.28	> 1	0.64 ± 0.11	> 1	> 1	–	–	–	–	–
COC(=O)N[C@H](C(=O)N[C@@H](Cc1ccccc1)[C@@H](O)CN(Cc1ccc(-c2ccccn2)cc1)NC(=O)[C@@H](NC(=O)OC)C(C)(C)C)C(C)(C)C [ATV, Atazanavir]	–	0.011	0.25 ± 0.003	0.032 ± 0.002	0.038 ± 0.009	–	0.0038 ± 0.0004	3	66	8	10
CC(C)(C)NC(=O)[C@@H]1C[C@@H]2CCCC[C@@H]2CN1C[C@@H](O)[C@H](Cc1ccccc1)NC(=O)[C@H](CC(N)=O)NC(=O)c1ccc2ccccc2n1 [SQV, Saquinavir]	–	0.032	0.27 ± 0.06	0.033 ± 0.005	0.18 ± 0.05	0.14 to 0.29	0.008 ± 0.003	5	34	4	23
Cc1c(O)cccc1C(=O)N[C@@H](CSc1ccccc1)[C@H](O)CN1C[C@H]2CCCC[C@H]2C[C@H]1C(=O)NC(C)(C)C [NFV, Nelfinavir]	–	–	–	–	–	> 1	–	–	–	–	–
CC(C)CN(CC(O)C(Cc1ccccc1)NC(=O)OC1COC2OCCC12)S(=O)(=O)c1ccc2c(c1)OCO2 (stereo not drawn) [GRL-98065]	–	0.18	0.0039 ± 0.0005	0.0034 ± 0.0003	0.0032 ± 0.0006	≤ 0.006	–	600	8	7	6
CC(C)c1nc(CN(C)C(=O)N[C@H](C(=O)N[C@@H](Cc2ccccc2)C[C@H](O)[C@H](Cc2ccccc2)NC(=O)OCc2cncs2)C(C)C)cs1 [RTV, ritonavir]	–	–	–	–	–	> 1	–	–	–	–	–
Cc1cccc(C)c1OCC(=O)N[C@@H](Cc1ccccc1)[C@@H](O)C[C@H](Cc1ccccc1)NC(=O)[C@H](C(C)C)N1CCCNC1=O [LPV, lopinavir]	0.007 ± 0.001	–	–	–	–	–	–	–	–	–	–
